Read-outs that look alike come from different tables or passages of the source.

The source of these data is article PMC3662613 (Chemmedchem, 2013).

One assay deals with SW403. As to the kind of experiment: Cytotoxicity / antiproliferative activity. It is filed as cell-based. The conditions noted are these: Homo sapiens.
For another assay, the system named is HCT15. Put plainly: Cytotoxicity / antiproliferative activity. In kind it is cell-based. The conditions noted are these: Homo sapiens.
Assay [1] concerns ODD-Luc (p97-independent proteasome substrate). As to the kind of experiment: ODD-Luc reporter degradation assay, dual reporter HeLa cell line. The conditions noted are these: Homo sapiens, read-out: IC50 ODD-Luc. It is filed as cell-based.
Assay [2] concerns Ub^G76V–GFP (p97-dependent reporter). Put plainly: Ub^G76V–GFP reporter degradation assay, dual reporter HeLa cell line. It is filed as cell-based. The conditions noted are these: read-out: IC50 Ub^G76V–GFP, triplicate, mean ±SD.
In another assay the target is p97 ATPase (Homo sapiens, UniProt P55072). As to the kind of experiment: p97 ATPase assay. The conditions noted are these: triplicate, mean ±SD. In kind it is biochemical.
Chain of p97 ATPase (P55072 whole entry): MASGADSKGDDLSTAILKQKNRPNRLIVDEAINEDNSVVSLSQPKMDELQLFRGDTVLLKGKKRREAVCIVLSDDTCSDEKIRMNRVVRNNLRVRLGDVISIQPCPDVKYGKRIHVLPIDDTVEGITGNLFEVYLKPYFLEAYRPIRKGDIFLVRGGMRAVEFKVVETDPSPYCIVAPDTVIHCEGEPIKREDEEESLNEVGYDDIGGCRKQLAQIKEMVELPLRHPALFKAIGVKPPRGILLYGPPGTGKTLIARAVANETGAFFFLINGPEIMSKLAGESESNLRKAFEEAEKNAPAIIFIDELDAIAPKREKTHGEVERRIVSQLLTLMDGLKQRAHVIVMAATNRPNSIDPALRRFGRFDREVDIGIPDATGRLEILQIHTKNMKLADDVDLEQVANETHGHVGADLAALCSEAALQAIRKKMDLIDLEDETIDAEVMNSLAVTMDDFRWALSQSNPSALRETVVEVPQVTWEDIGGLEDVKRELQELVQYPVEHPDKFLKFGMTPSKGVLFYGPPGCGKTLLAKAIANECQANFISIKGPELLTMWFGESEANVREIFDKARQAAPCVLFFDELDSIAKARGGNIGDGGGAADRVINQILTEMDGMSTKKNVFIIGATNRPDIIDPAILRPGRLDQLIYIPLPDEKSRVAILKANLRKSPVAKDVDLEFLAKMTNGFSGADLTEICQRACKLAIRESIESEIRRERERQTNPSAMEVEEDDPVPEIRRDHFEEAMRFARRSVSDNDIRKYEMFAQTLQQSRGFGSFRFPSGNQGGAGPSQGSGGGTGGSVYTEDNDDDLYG
Where [3] appears, read: SW-403, 24 h, read-out: Cytotoxicity GI50 SW403 24 h.
The mark [4] stands for this setting: SW-403, 72 h, read-out: Cytotoxicity GI50 SW403 72 h.
[5] abbreviates: HCT-15, 24 h, read-out: Cytotoxicity GI50 HCT15 24 h.
Setting [6] is: HCT-15, 72 h, read-out: Cytotoxicity GI50 HCT15 72 h.

For `c1ccc(CNc2nc(N3CCOc4ccccc43)nc3ccsc23)cc1` [compound 17, 2-(2H-Benzo[b][1,4]oxazin-4(3H)-yl)-N-benzylthieno[3,2-d]pyrimidin-4-amine], the 50% growth inhibitory concentration (GI50) with SW403 (setting [3]) was found to be 18 ± 10 µM; in the assay on SW403 (setting [4]), 9.7 ± 3.7 µM; in the assay on HCT15 (setting [5]), 37 ± 7 µM; with HCT15 (setting [6]), 16 ± 5 µM. Further, the 50% inhibitory concentration (IC50) in assay [1] was determined as 17 ± 2 µM.
Take “2-(2-Amino-5-bromo-1H-benzo[d]imidazol-1-yl)-N-benzyl-8-methoxyquinazolin-4-amine and 2-(2-Amino-6-bromo-1H-benzo[d]imidazol-1-yl)-N-benzyl-8-methoxyquinazolin-4-amine [compound 24]”: the results for the concentration for half-maximal inhibition (IC50) (in assay [2]; at p97 ATPase (read-out: IC50 ATPase)) were 30 ± 10 µM and 0.8 ± 0.3 µM, respectively.
At p97 ATPase (IC50 ATPase), `N#CCOc1cccc2c(NCc3ccccc3)nc(N3CCOc4ccccc43)nc12` [compound 39, 2-((2-(2H-Benzo[b][1,4]oxazin-4(3H)-yl)-4-(benzylamino)quinazolin-8-yl)oxy)acetonitrile] showed a 50% inhibitory concentration (IC50) of 0.4 ± 0.08 µM.
In turn, `COc1cccc2c(NCc3ccccc3)nc(-n3c(N)nc4cc(Cl)c(Cl)cc43)nc12` [compound 21, 2-(2-Amino-5,6-dichloro-1H-benzo[d]imidazol-1-yl)-N-benzyl-8-methoxyquinazolin-4-amine] yielded an IC50 at p97 ATPase (IC50 ATPase) of 25 ± 8 µM.
Consider “2-(2-Amino-5-methoxy-1H-benzo[d]imidazol-1-yl)-N-benzyl-8-methoxyquinazolin-4-amine and 2-(2-Amino-6-methoxy-1H-benzo[d]imidazol-1-yl)-N-benzyl-8-methoxyquinazolin-4-amine [compound 26]”, for which the IC50 in assay [2] was determined as 0.96 ± 0.2 µM; at p97 ATPase (read-out: IC50 ATPase) it was 0.48 ± 0.09 µM.
With `c1ccc(Nc2nc(Nc3ccccc3)c3ccccc3n2)cc1` [compound 9, N^2,N^4-Diphenylquinazoline-2,4-diamine], inhibition against p97 ATPase (IC50 ATPase) was half-maximal at 2.6 ± 0.8 µM (IC50).
In the case of `COCCOc1cccc2c(NCc3ccccc3)nc(N3CCOc4ccccc43)nc12` [compound 34, 2-(2H-Benzo[b][1,4]oxazin-4(3H)-yl)-N-benzyl-8-(2-methoxyethoxy)quinazolin-4-amine], the 50% growth inhibitory concentration (GI50) with SW403 (setting [3]) was found to be 15 ± 7 µM; in the assay on SW403 (setting [4]), 7.9 ± 2.7 µM; with HCT15 (setting [5]), 12 ± 4 µM; with HCT15 (setting [6]) it was 9 ± 3 µM. Also, the half-maximal inhibitory concentration (IC50) in assay [1] was 27 ± 5 µM.
For `COc1cccc2c(NCc3ccccc3)nc(-n3c(N)nc4cccc(F)c43)nc12` [compound 28, 2-(2-Amino-7-fluoro-1H-benzo[d]imidazol-1-yl)-N-benzyl-8-methoxyquinazolin-4-amine], at p97 ATPase (IC50 ATPase), the IC50 was 0.5 ± 0.1 µM.
The same measure, in the same setting: the same measure for `COc1cccc2c(NCc3ccccc3)nc(-n3c(N)nc4c(C)cccc43)nc12` [compound 29, 2-(2-Amino-4-methyl-1H-benzo[d]imidazol-1-yl)-N-benzyl-8-methoxyquinazolin-4-amine]: 0.045 ± 0.006 µM; for `COc1cccc2c(NCc3ccccc3)nc(-n3c(N)nc4c(F)cccc43)nc12` [compound 27, 2-(2-Amino-4-fluoro-1H-benzo[d]imidazol-1-yl)-N-benzyl-8-methoxyquinazolin-4-amine]: 0.043 ± 0.01 µM.
As to `OCCOc1cccc2c(NCc3ccccc3)nc(N3CCOc4ccccc43)nc12` [compound 33, 2-((2-(2H-Benzo[b][1,4]oxazin-4(3H)-yl)-4-(benzylamino)quinazolin-8-yl)oxy)ethanol], the GI50 was determined as 42 ± 9 µM with SW403 (setting [3]), 9.4 ± 2.9 µM in the assay with SW403 (setting [4]), 28 ± 3 µM in the assay with HCT15 (setting [5]) and 17 ± 5 µM in the assay with HCT15 (setting [6]). Also, the half-maximal inhibitory concentration (IC50) in assay [1] was > 20 µM.
On the same counts, the results for `COc1cccc2c(NCc3ccccc3)nc(NCc3ccccc3)nc12` [compound 14, N^2,N^4-Dibenzyl-8-methoxyquinazoline-2,4-diamine] are 0.8 ± 0.3 µM, 0.5 ± 0.2 µM, 1.1 ± 0.3 µM, 0.8 ± 0.3 µM and 6.5 ± 1.1 µM.
Turning to `c1ccc(CNc2nc(N3CCOc4ccccc43)nc3ccccc23)cc1` [compound 15, 2-(2H-Benzo[b][1,4]oxazin-4(3H)-yl)-N-benzylquinazolin-4-amine], the 50% growth inhibitory concentration (GI50) with SW403 (setting [3]) came to 21 ± 5 µM; with SW403 (setting [4]), 13 ± 4 µM; in the assay on HCT15 (setting [5]), 24 ± 3 µM; in the assay with HCT15 (setting [6]) it was 10 ± 3 µM. Moreover, in assay [1], the IC50 was > 20 µM.
On the same counts, the results for `COc1cccc2c(NCc3ccccc3)nc(Nc3nc4ccccc4n3C)nc12` [compound 19, N^4-Benzyl-8-methoxy-N^2-(1-methyl-1H-benzo[d]imidazol-2-yl)quinazoline-2,4-diamine] are 1.7 ± 0.7 µM, 1.4 ± 0.5 µM, 1.7 ± 0.8 µM, 1.4 ± 0.5 µM and 10 ± 2 µM.
The like results for `COc1cccc2c(NCc3ccccc3)nc(N3CCOc4ccccc43)nc12` [compound 38, 2-(2H-Benzo[b][1,4]oxazin-4(3H)-yl)-N-benzyl-8-methoxyquinazolin-4-amine] were, in that order, 43 ± 11 µM, 13 ± 4 µM, 25 ± 5 µM, 12 ± 3 µM and > 20 µM.
As for “2-(2-Amino-5-methyl-1H-benzo[d]imidazol-1-yl)-N-benzyl-8-methoxyquinazolin-4-amine and 2-(2-Amino-6-methyl-1H-benzo[d]imidazol-1-yl)-N-benzyl-8-methoxyquinazolin-4-amine [compound 25]”, the results for the IC50 (in assay [2]; at p97 ATPase (read-out: IC50 ATPase)) were 2.5 ± 0.5 µM and 0.24 ± 0.06 µM, respectively.
At p97 ATPase (IC50 ATPase), `CCCCOc1cccc2c(NCc3ccccc3)nc(N3CCOc4ccccc43)nc12` [compound 37, 2-(2H-Benzo[b][1,4]oxazin-4(3H)-yl)-N-benzyl-8-butoxyquinazolin-4-amine] came in with an IC50 of 2.63 ± 0.7 µM.
Turning to “2-(2-Amino-5-chloro-1H-benzo[d]imidazol-1-yl)-N-benzyl-8-methoxyquinazolin-4-amine and 2-(2-Amino-6-chloro-1H-benzo[d]imidazol-1-yl)-N-benzyl-8-methoxyquinazolin-4-amine [compound 23]”, the IC50 in assay [2] came out at 31 ± 7 µM; at p97 ATPase (read-out: IC50 ATPase), 0.7 ± 0.3 µM.
With `CCN(CC)CCOc1cccc2c(NCc3ccccc3)nc(N3CCOc4ccccc43)nc12` [compound 35, 2-(2H-Benzo[b][1,4]oxazin-4(3H)-yl)-N-benzyl-8-(2-(diethylamino)ethoxy)quinazolin-4-amine], the GI50 in the assay on SW403 (setting [3]) stood at 11 ± 5 µM; in the assay with SW403 (setting [4]) it was 3.9 ± 1 µM; in the assay on HCT15 (setting [5]), 13 ± 5 µM; with HCT15 (setting [6]) it was 7.1 ± 2.5 µM. The IC50 in assay [1] turned out to be 61 ± 6 µM.
The like results for `COc1cccc2c(NCc3ccc(F)cc3)nc(N3CCOc4ccccc43)nc12` [compound 40, 2-(2H-Benzo[b][1,4]oxazin-4(3H)-yl)-N-(4-fluorobenzyl)-8-methoxyquinazolin-4-amine] were, in that order, 21 ± 6 µM, 9.4 ± 2.6 µM, 27 ± 4 µM, 8.9 ± 2.3 µM and > 20 µM.
For the compound “2-(2-Amino-5-fluoro-1H-benzo[d]imidazol-1-yl)-N-benzyl-8-methoxyquinazolin-4-amine and 2-(2-Amino-6-fluoro-1H-benzo[d]imidazol-1-yl)-N-benzyl-8-methoxyquinazolin-4-amine [compound 30]”, the figures for the IC50 (in assay [2]; on p97 ATPase (read-out: IC50 ATPase)) were 6.8 ± 1 µM and 0.08 ± 0.02 µM, respectively.

As usually defined, the GI50 is the concentration at which growth is held to half of that of the control. As usually defined, the IC50 is the concentration needed to halve the response being measured.
